The subject of the experiment is Bovine cardiac myofibrils. The experiment in a line: In vitro model of dose-dependent myofibril ATPase modulation (AC1.4, pyruvate kinase/lactate dehydrogenase-coupled ATPase assay at pCa25). Format: biochemical. To be noted: concentration at which ATPase activity was 1.4-fold higher than the bottom of the dose curve, mean of a minimum of two independent tests. The method in brief: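 Coupled-enzyme ATPase on bovine heart myofibrils, 1 mM ATP, EGTA/CaCl2 buffered; 340 nm readout.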
`C[C@@H](NC(=O)[C@H]1CCCN1C(=O)[C@H]1CCCN(S(=O)(=O)N2CC(C#N)C2)C1)c1ccc(C(F)F)cc1` [Example 248, 1-(((3S)-1-((3-cyano-1-azetidinyl)sulfonyl)-3-piperidinyl)carbonyl)-N-((1R)-1-(4-(difluoromethyl)phenyl)ethyl)-D-prolinamide] gave an AC1.4 of 0.5915 µM.
Next, `COC1CN(S(=O)(=O)c2cccc(C(=O)N3CCC[C@@H]3C(=O)NCc3ccc(C(F)(F)F)cc3)c2)C1` [Example 258, 1-((3-((3-methoxy-1-azetidinyl)sulfonyl)phenyl)carbonyl)-N-(4-(trifluoromethyl)benzyl)-D-prolinamide]: 0.6326 µM; `O=C(N[C@@H](c1cc(F)c(C(F)(F)F)cc1F)C1CC1)[C@H]1C[C@H]2C[C@H]2N1C(=O)c1cc(Cl)cc2cn[nH]c12` [Example 821, (1R,3R,5R)-2-(5-chloro-1H-indazole-7-carbonyl)-N-((R)-cyclopropyl(2,5-difluoro-4-(trifluoromethyl)phenyl)methyl)-2-azabicyclo[3.1.0]hexane-3-carboxamide]: 1.2142 µM.
Next, `N#CC1CN(S(=O)(=O)N2CCO[C@H](C(=O)N3CCC[C@@H]3C(=O)NCc3cc(F)cc(F)c3)C2)C1` [Example 517, 1-(((2S)-4-((3-cyano-1-azetidinyl)sulfonyl)-2-morpholinyl)carbonyl)-N-(3,5-difluorobenzyl)-D-prolinamide]: 2.4485 µM; `O=C(N[C@@H](c1cc(F)c(Cl)cc1F)C1CC1)[C@H]1C[C@H]2C[C@H]2N1C(=O)c1cncc(C(F)(F)F)c1` [Example 374, (1R,3R,5R)-N-((R)-(4-chloro-2,5-difluorophenyl)(cyclopropyl)methyl)-2-((5-(trifluoromethyl)-3-pyridinyl)carbonyl)-2-azabicyclo[3.1.0]hexane-3-carboxamide]: 1.2265 µM; `N#CC1CN(S(=O)(=O)c2cccc(C(=O)N3CCC[C@@H]3C(=O)N[C@@H](CO)c3ccc(Cl)c(F)c3)c2)C1` [Example 105, N-((1R)-1-(4-chloro-3-fluorophenyl)-2-hydroxyethyl)-1-(3-((3-cyano-1-azetidinyl)sulfonyl)benzoyl)-D-prolinamide]: 0.1638 µM.
Next, `CS(=O)(=O)c1cccc(C(=O)N2CCC[C@@H]2C(=O)N[C@@H](c2ccc(C(F)(F)F)cc2F)C2COC2)c1` [Example 232, N-((R)-(2-fluoro-4-(trifluoromethyl)phenyl)(3-oxetanyl)methyl)-1-(3-(methylsulfonyl)benzoyl)-D-prolinamide]: 0.5201 µM.
As to `CCc1ccnc(C(=O)N2[C@@H](C(=O)N[C@@H](c3cc(F)c(C(F)(F)F)cc3F)C3CC3)C[C@H]3C[C@H]32)c1` [Example 661, (1R,3R,5R)-N-((R)-cyclopropyl(2,5-difluoro-4-(trifluoromethyl)phenyl)methyl)-2-((4-ethyl-2-pyridinyl)carbonyl)-2-azabicyclo[3.1.0]hexane-3-carboxamide], the AC1.4 turned out to be 4.1595 µM.
`CS(=O)(=O)c1cccc(C(=O)N2[C@@H](C(=O)NC(c3ccc(C(F)(F)F)cc3F)C3CNC(=O)C3)C[C@H]3C[C@H]32)c1` (stereo partly drawn) [Example 685, (1R,3R,5R)-N-((2-fluoro-4-(trifluoromethyl)phenyl)(5-oxopyrrolidin-3-yl)methyl)-2-(3-(methylsulfonyl)benzoyl)-2-azabicyclo[3.1.0]hexane-3-carboxamide] came in with an AC1.4 of 5.246 µM.
Next, `O=C(N[C@@H](c1cc(F)c(C(F)(F)F)cc1F)C1CC1)[C@H]1C[C@H]2C[C@H]2N1C(=O)c1cncc(C(F)(F)F)c1` [Example 361, (1R,3R,5R)-N-((R)-cyclopropyl(2,5-difluoro-4-(trifluoromethyl)phenyl)methyl)-2-((5-(trifluoromethyl)-3-pyridinyl)carbonyl)-2-azabicyclo[3.1.0]hexane-3-carboxamide]: 1.1125 µM; `O=C(NCc1ccc(C(F)(F)F)cc1)[C@H]1CC2(CC2)CN1C(=O)c1cccc(S(=O)(=O)N2CC3(CC3)C2)c1` [Example 312, (6R)-5-((3-(5-azaspiro[2.3]hex-5-ylsulfonyl)phenyl)carbonyl)-N-(4-(trifluoromethyl)benzyl)-5-azaspiro[2.4]heptane-6-carboxamide]: 0.841 µM; `CS(=O)(=O)c1cccc(C(=O)N2C(=O)OC[C@@H]2C(=O)N[C@@H](c2ccc(C(F)(F)F)cc2F)C2CC2)c1` [Example 543, (4R)-N-((R)-cyclopropyl(2-fluoro-4-(trifluoromethyl)phenyl)methyl)-3-(3-(methylsulfonyl)benzoyl)-2-oxo-1,3-oxazolidine-4-carboxamide]: 2.813 µM.
In turn, `N#CC1CN(S(=O)(=O)N2CCC[C@H](C(=O)N3CCC[C@@H]3C(=O)NC(c3cc(F)ccc3F)C(F)F)C2)C1` (stereo partly drawn) [Example 524, (2R)-1-((S)-1-((3-cyanoazetidin-1-yl)sulfonyl)piperidine-3-carbonyl)-N-(1-(2,5-difluorophenyl)-2,2-difluoroethyl)pyrrolidine-2-carboxamide] gave an AC1.4 of 2.583 µM.
For `CS(=O)(=O)c1cccc(C(=O)N2C[C@@H](F)C[C@@H]2C(=O)N[C@@H](c2ccc(C(F)(F)F)cc2)C2COC2)c1` [Example 546, (4S)-4-fluoro-1-(3-(methylsulfonyl)benzoyl)-N-((R)-3-oxetanyl(4-(trifluoromethyl)phenyl)methyl)-D-prolinamide], the AC1.4 turned out to be 2.6257 µM.
Next, `CS(=O)(=O)c1cccc(C(=O)N2[C@@H](C(=O)N[C@@H](c3cc(F)c(C#N)cc3F)C3CC3)C[C@H]3C[C@H]32)c1` [Example 570, (1R,3R,5R)-N-((R)-(4-cyano-2,5-difluorophenyl)(cyclopropyl)methyl)-2-(3-(methylsulfonyl)benzoyl)-2-azabicyclo[3.1.0]hexane-3-carboxamide]: 3.1825 µM; `Cc1cc(CNC(=O)[C@H]2CCCN2C(=O)[C@H]2CCCN(S(=O)(=O)N3CC(C#N)C3)C2)ccc1Cl` [Example 137, N-(4-chloro-3-methylbenzyl)-1-(((3S)-1-((3-cyano-1-azetidinyl)sulfonyl)-3-piperidinyl)carbonyl)-D-prolinamide]: 0.2267 µM; `O=C(N[C@@H](c1ccc(C(F)(F)F)cc1F)C1CC1)[C@H]1CCCCN1C(=O)c1cccc(C(O)(O)C(F)(F)F)c1` [Example 322, (2R)-N-((R)-cyclopropyl(2-fluoro-4-(trifluoromethyl)phenyl)methyl)-1-(3-(2,2,2-trifluoro-1,1-dihydroxyethyl)benzoyl)-2-piperidinecarboxamide]: 0.8731 µM.
The value for `CCN(CC)S(=O)(=O)c1cccc(C(=O)N2CCC[C@@H]2C(=O)NCc2ccc(C(F)(F)F)cc2)c1` [Example 564, 1-(3-(diethylsulfamoyl)benzoyl)-N-(4-(trifluoromethyl)benzyl)-D-prolinamide] was 3.077 µM; that for `O=C(NCc1ccc(C(F)(F)F)cc1)[C@H]1CCCN1C(=O)[C@H]1CCCN(S(=O)(=O)N2CC(C3CCC3)C2)C1` [Example 483, 1-(((3S)-1-((3-cyclobutyl-1-azetidinyl)sulfonyl)-3-piperidinyl)carbonyl)-N-(4-(trifluoromethyl)benzyl)-D-prolinamide] was 2.168 µM; that for `N#CC1CN(S(=O)(=O)c2cccc(C(=O)N3CC(F)(F)C[C@@H]3C(=O)NCc3ccc(C(F)(F)F)cc3)c2)C1` [Example 8, 1-((3-((3-cyano-1-azetidinyl)sulfonyl)phenyl)carbonyl)-4,4-difluoro-N-(4-(trifluoromethyl)benzyl)-D-prolinamide] was 0.0198 µM.
The value for `N#CC1CN(S(=O)(=O)N2CCC[C@H](C(=O)N3CCC[C@@H]3C(=O)NCc3ccc(F)cc3C(F)(F)F)C2)C1` [Example 652, 1-(((3S)-1-((3-cyano-1-azetidinyl)sulfonyl)-3-piperidinyl)carbonyl)-N-(4-fluoro-2-(trifluoromethyl)benzyl)-D-prolinamide] was 4.5245 µM; that for `Cc1cc(C(=O)N2[C@@H](C(=O)N[C@@H](c3ccc(C(F)(F)F)cc3F)C3CC3)C[C@H]3C[C@H]32)c(NCCO)cn1` [Example 545, (1R,3R,5R)-N-((R)-cyclopropyl(2-fluoro-4-(trifluoromethyl)phenyl)methyl)-2-((5-((2-hydroxyethyl)amino)-2-methyl-4-pyridinyl)carbonyl)-2-azabicyclo[3.1.0]hexane-3-carboxamide] was 2.818 µM.
For the compound `N#CC1CN(S(=O)(=O)N2CCC[C@H](C(=O)N3CCC[C@@H]3C(=O)N[C@H](CO)c3ccc(Cl)cc3)C2)C1` [Example 169, N-((1S)-1-(4-chlorophenyl)-2-hydroxyethyl)-1-(((3S)-1-((3-cyano-1-azetidinyl)sulfonyl)-3-piperidinyl)carbonyl)-D-prolinamide], the AC1.4 turned out to be 0.2892 µM.
Next, `CS(=O)(=O)c1cccc(C(=O)N2[C@@H](C(=O)N[C@@H](c3cc(F)c(Cl)cc3F)C3(O)CC3)C[C@H]3C[C@H]32)c1` [Example 316, (1R,3R,5R)-N-((S)-(4-chloro-2,5-difluorophenyl)(1-hydroxycyclopropyl)methyl)-2-(3-(methylsulfonyl)benzoyl)-2-azabicyclo[3.1.0]hexane-3-carboxamide]: 0.8325 µM; `N#CC1CN(S(=O)(=O)N2CCC[C@H](C(=O)N3C[C@H]4C[C@H]4[C@@H]3C(=O)NCc3ccc(C(F)(F)F)cc3)C2)C1` [Example 90, (1R,2R,5S)-3-(((3S)-1-((3-cyano-1-azetidinyl)sulfonyl)-3-piperidinyl)carbonyl)-N-(4-(trifluoromethyl)benzyl)-3-azabicyclo[3.1.0]hexane-2-carboxamide]: 0.1363 µM.
Next, `O=C(NCc1ccc(C(F)(F)F)cc1)[C@H]1CCCN1C(=O)[C@H]1CCCN(S(=O)(=O)N2CCC23CCC3)C1` [Example 800, 1-(((3S)-1-(1-azaspiro[3.3]hept-1-ylsulfonyl)-3-piperidinyl)carbonyl)-N-(4-(trifluoromethyl)benzyl)-D-prolinamide]: 9.537 µM.

Values taken from patent US11780826B2 (Amgen Inc., priority 2017, dated 2023).
